The source of these data is paper PMC4829233, “Identification of Novel Chemical Scaffolds Inhibiting Trypanothione Synthetase from Pathogenic Trypanosomatids” (PLoS Neglected Tropical Diseases, 2016).

“And” between values parts separate entries of the source, which are not always exact repeats. Equal values may be shown once. Read-outs that look alike come from different tables or passages of the source. Some results are limits rather than exact numbers.

Series [1] addresses L. infantum trypanothione synthetase (LiTryS) (Leishmania infantum, UniProt A4I2Z3). The experiment in a line: biochemical. The class given is biochemical.
Series [2] deals with T1, T. cruzi trypanothione synthetase (TcTryS) (Trypanosoma cruzi, UniProt Q9GT49).
Another series addresses CfGspS. As to conditions: ref [64]; cited from earlier work.
Series [3] concerns the target T2, T. b. brucei trypanothione synthetase (TbTryS) (Trypanosoma brucei brucei, UniProt Q8IEX1). The experiment in a line: biochemical.
The test system of another series is TbTryS. The following applies: HTS leaders; ref [17], [18]; cited from earlier work.
Series [4] has as its target TbTryS (Trypanosoma brucei trypanothione synthetase) (Trypanosoma brucei brucei, UniProt Q8IEX1). The experiment in a line: biochemical.
The target of series [5] is LiTryS (Leishmania infantum trypanothione synthetase) (Leishmania infantum, UniProt A4I2Z3). The experiment in a line: biochemical. The class given is biochemical.
Series [6] has as its target TcTryS (Trypanosoma cruzi trypanothione synthetase) (Trypanosoma cruzi, UniProt Q9GT49). The experiment in a line: biochemical. The class given is biochemical. The following applies: read-out: % TcTryS inhibition ± 2σn-1.
For a further series, the system named is LiTryS. The arrangement: method as in PMID 24853758. The following applies: ref [20]; cited from earlier work.
Series [7] concerns Leishmania infantum promastigotes. The arrangement: method as in PMID 24853758. As to conditions: ref [20], read-out: L. infantum EC50; cited from earlier work.
Series [8] has as its system C. fasciculata trypanothione synthetase (CfTryS). More on the design: method as in PMID 15537651. The following applies: ref [23], cited from earlier work.
The target of series [9] is T2, T. b. brucei trypanothione synthetase (TbTryS). The following applies: cited from earlier work.
Series [10] concerns the target T. cruzi trypanothione synthetase (TcTryS). As to conditions: cited from earlier work.
Series [11] deals with L. major trypanothione synthetase. The arrangement: method as in PMID 15610825. The following applies: PK/LDH assay, ref [26], cited from earlier work.
The target of series [12] is T1, T. cruzi trypanothione synthetase (TcTryS). The experiment in a line: biochemical. As to conditions: apparent Ki GSH, TcTryS strain Tulahuen 0 (His-tagged), LDH/PK assay; substrate inhibition.
For a further series, the system named is TryS from C. fasciculata. More on the design: method as in earlier work. As to conditions: ref [10]; cited from earlier work.
Series [13] concerns L. infantum promastigotes. The experiment in a line: Analysis of intracellular thiols. The class given is cell-based, Leishmania infantum. How it is done:
The method is a modified version of that described in [62]. Briefly, L. infantum promastigotes or bloodstream T. b. brucei (WT and RNAi-TryS cell lines) treated or not with compounds (MOL2008 or EAP1-47, respectively) for 24 h were harvested by centrifugation (2000g, 10 min at 4°C), washed twice with PBS and resuspended at a density of 10^8 cells/0.1 mL of 40 mM Hepes pH 8.0 and 2 mM mono-bromobimane in methanol. After incubation at 70°C for 3 minutes, the samples were cooled on ice, then added of 100 μL 4 M methanesulfonic acid (adjusted to pH 1.5 with LiOH) and incubated overnight at 4°C. The supernatant containing the derivatized low molecular mass thiols was centrifuged at 13000g 40 min at 0°C.

The test system of series [14] is Leishmania infantum promastigotes. Put plainly: Proliferation/cytotoxicity assay, L. infantum promastigotes. The class given is cell-based. The following applies: 24 h, promastigotes. As for the experimental part:
All assays were performed in duplicates or triplicates.
Leishmania infantum promastigotes were cultured at 28 °C in RPMI 1640 Glutamax supplemented with 10% (v/v) FCS, 10 U ml^-1 penicillin, 10 µg ml^-1 streptomycin and 25 mM HEPES sodium salt pH 7.4. […] Twenty four hours later the number of living parasites was estimated by cell counting under the light microscope using a Neubauer chamber and viability calculated as percentage relative to cultures incubated with the vehicle alone.

For series [15], the system named is bloodstream Trypanosoma brucei brucei. Put plainly: Proliferation/cytotoxicity assay, infective T. b. brucei. The class given is cell-based. As to conditions: 24 h, read-out: T. b. Brucei EC50.
A further series concerns NCCCCNCCCN
The experiment in a line: purified protein, by the assay type. As to conditions: other: LDH/PK assay, saturating co-substrates; pH 7.4.

[16] abbreviates: n = 4, read-out: LiTryS IC50, representative dose-response plot.

Chain of TbTryS (Trypanosoma brucei trypanothione synthetase) (Q8IEX1 1-627): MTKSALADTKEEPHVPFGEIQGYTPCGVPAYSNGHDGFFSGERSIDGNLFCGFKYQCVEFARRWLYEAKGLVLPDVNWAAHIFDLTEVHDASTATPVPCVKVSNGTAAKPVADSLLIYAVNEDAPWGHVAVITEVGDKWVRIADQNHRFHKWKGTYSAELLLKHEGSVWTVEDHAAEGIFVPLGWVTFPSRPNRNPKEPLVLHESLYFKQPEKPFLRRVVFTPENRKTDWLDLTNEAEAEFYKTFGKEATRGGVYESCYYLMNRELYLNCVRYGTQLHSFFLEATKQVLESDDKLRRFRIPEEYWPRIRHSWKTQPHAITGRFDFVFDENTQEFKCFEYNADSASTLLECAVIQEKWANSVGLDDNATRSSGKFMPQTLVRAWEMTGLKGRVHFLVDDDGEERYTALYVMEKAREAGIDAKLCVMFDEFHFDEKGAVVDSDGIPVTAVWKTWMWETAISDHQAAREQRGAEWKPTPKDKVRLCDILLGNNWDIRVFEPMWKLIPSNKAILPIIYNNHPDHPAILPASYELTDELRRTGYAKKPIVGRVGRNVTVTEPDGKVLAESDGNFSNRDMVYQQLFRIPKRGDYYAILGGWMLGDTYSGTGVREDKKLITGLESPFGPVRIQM
T2 sequence (Q8IEX1 entry or part of it): as the sequence (Q8IEX1 1-627) above
Chain of L. infantum trypanothione synthetase (LiTryS) (A4I2Z3 entry or part of it): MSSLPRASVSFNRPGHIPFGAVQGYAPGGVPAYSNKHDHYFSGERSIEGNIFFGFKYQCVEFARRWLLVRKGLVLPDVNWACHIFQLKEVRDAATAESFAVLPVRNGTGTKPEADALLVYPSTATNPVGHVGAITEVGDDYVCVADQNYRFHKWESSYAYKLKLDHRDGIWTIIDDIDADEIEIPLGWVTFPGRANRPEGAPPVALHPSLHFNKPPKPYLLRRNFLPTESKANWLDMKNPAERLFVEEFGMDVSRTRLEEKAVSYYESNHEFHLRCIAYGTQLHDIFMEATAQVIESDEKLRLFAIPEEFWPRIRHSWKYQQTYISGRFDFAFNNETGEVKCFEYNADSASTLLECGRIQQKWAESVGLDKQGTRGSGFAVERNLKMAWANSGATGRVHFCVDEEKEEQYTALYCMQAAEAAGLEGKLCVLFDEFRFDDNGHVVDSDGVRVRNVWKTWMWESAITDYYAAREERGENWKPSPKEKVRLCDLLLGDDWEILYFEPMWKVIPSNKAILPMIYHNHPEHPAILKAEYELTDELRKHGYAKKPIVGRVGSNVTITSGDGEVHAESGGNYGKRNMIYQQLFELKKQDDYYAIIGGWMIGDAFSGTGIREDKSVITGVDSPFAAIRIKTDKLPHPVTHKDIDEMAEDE
Chain of LiTryS (Leishmania infantum trypanothione synthetase) (A4I2Z3 1-652): as the sequence (A4I2Z3 entry or part of it) above
T1 sequence (Q9GT49 whole entry): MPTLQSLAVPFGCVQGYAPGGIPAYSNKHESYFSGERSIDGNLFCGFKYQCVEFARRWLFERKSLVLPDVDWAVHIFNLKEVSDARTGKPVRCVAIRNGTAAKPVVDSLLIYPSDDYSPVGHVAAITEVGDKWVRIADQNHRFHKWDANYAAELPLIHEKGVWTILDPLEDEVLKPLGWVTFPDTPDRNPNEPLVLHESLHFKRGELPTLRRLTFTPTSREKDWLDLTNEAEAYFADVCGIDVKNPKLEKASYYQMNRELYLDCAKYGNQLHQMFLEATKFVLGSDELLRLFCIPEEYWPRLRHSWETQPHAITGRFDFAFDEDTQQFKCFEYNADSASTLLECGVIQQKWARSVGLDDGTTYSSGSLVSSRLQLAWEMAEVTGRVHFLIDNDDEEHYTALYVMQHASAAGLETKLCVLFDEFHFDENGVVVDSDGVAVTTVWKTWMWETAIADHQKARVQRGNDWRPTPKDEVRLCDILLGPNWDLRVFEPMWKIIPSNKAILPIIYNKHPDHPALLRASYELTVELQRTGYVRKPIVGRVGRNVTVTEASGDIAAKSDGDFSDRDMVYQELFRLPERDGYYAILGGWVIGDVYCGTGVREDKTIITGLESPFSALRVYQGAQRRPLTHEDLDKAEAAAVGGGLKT
Chain of TcTryS (Trypanosoma cruzi trypanothione synthetase) (Q9GT49 whole entry): as above

On to `Nc1ncnc2c1ncn2[C@@H]1O[C@H](COP(=O)(O)OP(=O)(O)O)[C@@H](O)[C@H]1O` [ADP], for which the Ki in [1] (end-point BIOMOL GREEN assay, competes with ATP, read-out: apparent Ki ADP, LiTryS JPCM5 (His-tagged)) was 90 ± 8 µM; in series [2] (read-out: apparent Ki ADP, TcTryS strain Tulahuen 0 (His-tagged), end-point BIOMOL GREEN assay, competes with ATP), 60 ± 6 µM; at CfGspS, 80 µM; in series [3] (end-point BIOMOL GREEN assay, competes with ATP, read-out: apparent Ki ADP, His-tagged TbTryS 427 (MITat1.4)), 40 ± 5 µM.
Turning to `CN(C)CCCNC(=O)Cn1nc(-c2cccc(F)c2)c2ccccc21` [DDU86439], the IC50 in the series on TbTryS was 0.045 µM.
For the compound `CNCCNC(=O)CN1C(=O)Cc2c([nH]c3cc(C(F)(F)F)ccc23)-c2ccccc21` [FS-554], the concentration for half-maximal inhibition (IC50) in series [4] was ~75 µM; in [5] (setting [16]), 0.32 ± 0.73 µM; in [5] (read-out: LiTryS IC50) it was 0.35 µM; in the series with LiTryS, 0.35 µM. Besides, the inhibition at 75 µM in [4] was ~50%. Besides, the “slope plot, LiTryS, representative dose-response plot” value in [5] was determined as 0.37 ± 0.03. Also, the inhibition at 30 µM in series [6] is ~50%. In addition, the EC50 in [7] is 112.3 ± 1.1 µM.
Take `N[C@@H](CCC(=O)N[C@@H](CS)C(=O)NCC(=O)O)C(=O)O` [GSH, glutathione]: the Km is 1180 µM in [8] (PK/LDH assay, read-out: apparent KM, C. fasciculata TryS (unknown strain)); 23.8 to 56.2 µM in [9] (read-out: KM reported for untagged TbTryS by different laboratories, ref [24], [27]); 34 ± 4 µM in [9] (read-out: apparent KM, TbTryS strain 427, cell line 449, PK/LDH assay, ref [24]); 56.2 ± 10.7 µM in [9] (read-out: apparent KM, untagged TbTryS 427 (MITat1.4), PK/LDH coupled assay, ref [27]); 23.8 ± 2.3 µM in series [9] (read-out: apparent KM, untagged TbTryS 427 (MITat1.4), end-point assay, ref [18]); 760 ± 210 µM in series [10] (PK/LDH assay, 37 °C, ref [22], read-out: apparent KM, TcTryS strain Ninoa). The Km was 570 ± 50 µM in series [10] (PK/LDH assay, ref [25], read-out: apparent KM, TcTryS strain Silvio X10 clone 7) and 89 ± 7 µM in series [11] (read-out: apparent KM, L. major Friedlin TryS). The “Ki GSH, C. fasciculata TryS (unknown strain)” value in series [8] is listed as “Yes”. Further, the Ki in series [9] (read-out: Ki GSH reported for untagged TbTryS by different laboratories, ref [24], [27]) is 36.5 to 143 µM; in series [9] (read-out: apparent Ki GSH, TbTryS strain 427, cell line 449, PK/LDH assay, ref [24]), 143 ± 20 µM; in series [9] (read-out: apparent Ki GSH, untagged TbTryS 427 (MITat1.4), PK/LDH coupled assay, ref [27]), 36.5 ± 6.7 µM; in series [9] (read-out: apparent Ki GSH, untagged TbTryS 427 (MITat1.4), end-point assay, ref [18]), 55 ± 6 µM; in series [1] it was 699 ± 75 µM; in [10] (read-out: apparent Ki GSH, TcTryS strain Silvio X10 clone 7, PK/LDH assay, ref [25]) it was 1200 ± 100 µM. Moreover, the Ki in series [11] (read-out: apparent Ki GSH, L. major Friedlin TryS) is 1000 ± 80 µM; in series [3] (apparent Ki GSH, His-tagged TbTryS 427 (MITat1.4), LDH/PK assay, substrate inhibition), 242 µM and 254 µM; in series [12], 1600 µM and 1690 µM. In addition, the “apparent Ki/KM GSH, L. infantum TryS” value in series [1] was found to be 4.1. Further, in series [10] (No = lack of GSH inhibition at 4.5 mM, ref [22]), the “Ki GSH, TcTryS strain Ninoa” value was “No^f”. Moreover, in series [2], the “apparent Ki/KM GSH, T. cruzi TryS” value turned out to be 13.0. Moreover, the “apparent Ki/KM GSH, T. b. brucei TryS” value in [3] is 1.8.
`CNCCNC(=O)CN1C(=O)Cc2c([nH]c3ccc(Br)cc23)-c2ccc(Cl)cc21` [MOL2008]: the IC50 was 0.03 µM in the series with TryS from C. fasciculata; 30 µM and ~30 µM and ≤ 30 µM in series [4]; 0.14 ± 0.03 µM in series [5] (setting [16]); < 1 µM in series [5] (read-out: LiTryS IC50). Also, the inhibition at 30 µM in series [4] (read-out: % TbTryS inhibition ± 2σn-1) and in [6] was ~50% throughout. In addition, the “slope plot, LiTryS, representative dose-response plot” value in series [5] stood at 0.38 ± 0.03. Moreover, in series [13], the “decrease of T(SH)2 content” value is recorded as ≥ 90%. Besides, the EC50 in series [14] (Leishmania infantum) was 12 µM; in series [14], 12.6 ± 1.6 µM; in [15], 4.3 ± 0.7 µM.
As for “T. cruzi trypanothione synthetase (TcTryS) (Trypanosoma cruzi strain CL Brener)”, in the series with NCCCCNCCCN, the Km was 685 ± 105 µM and 702 ± 70 µM.
